According to PubChem BioAssay (NCI):
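These data come from cells grown in 96-well plates and exposed to compound for 48 hours at five concentrations. Abbreviation: GI50, concentration required for 50% inhibition of growth. TGI: total growth inhibition.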

How the values were obtained:
Test in all cases: NCI tumour cell line growth inhibition, 48 h
[1] = test system: SNB-19 CNS
[2] = test system: U251 CNS
[3] = test system: KM12 colon
[4] = test system: SF-539 CNS
[5] = test system: A498 renal
[6] = test system: HT29 colon
[7] = test system: HOP-92 NSCLC
[8] = test system: K-562 leukemia
[9] = test system: SW-620 colon
[10] = test system: 786-0 renal

Row | SMILES | TGI [1] [µM] | TGI [2] [µM] | TGI [3] [µM] | TGI [4] [µM] | TGI [5] [µM] | TGI [6] [µM] | TGI [7] [µM] | TGI [8] [µM] | TGI [9] [µM] | TGI [10] [µM] | GI50 [1] [µM] | GI50 [2] [µM] | GI50 [3] [µM] | GI50 [4] [µM] | GI50 [5] [µM] | GI50 [6] [µM] | GI50 [7] [µM] | GI50 [8] [µM] | GI50 [9] [µM] | GI50 [10] [µM]
1 | NC1=C(Br)C(=O)c2ncccc2C1=O | 2.41 | 0.671 | 2.7 | 0.629 | 7.99 | 4.3 | 3.06 | 1.01 | 1.84 | 2.99 | – | – | – | – | – | – | – | – | – | –
2 | C[C@]12CC[C@@H]3c4ccc(O)cc4CC[C@H]3[C@@H]1CC[C@@H]2NS(=O)(=O)c1cccc(C(F)(F)F)c1 | 18.2 | 14.3 | 11.8 | 16.2 | 8.75 | 10.2 | 7.81 | 15.3 | 15.6 | 8.95 | 4.64 | 3.75 | 3.4 | 4.21 | 2.7 | 3.39 | 1.94 | 3.63 | 3.72 | 3.06
3 | O=C(CCCCCCSc1nc(-c2ccccc2)cc(-c2ccccc2)n1)NO | 11.3 | 4.08 | 15.9 | 10 | 4.05 | 11.3 | 4.95 | 12 | 12.8 | 4.48 | 2.69 | 1.51 | 3.22 | 2.43 | 1.69 | 2.02 | 1.75 | 1.58 | 1.49 | 1.91
4 | C/C(=C\c1ccn(-c2ccc(N)c(F)c2)n1)[C@@H]1C[C@@H]2O[C@]2(C)CCC[C@H](C)[C@H](O)[C@@H](C)C(=O)C(C)(C)[C@@H](O)CC(=O)O1 | > 50 | > 50 | > 50 | 0.11 | 0.267 | > 15.9 | > 44.4 | > 50 | > 50 | > 50 | 0.048 | < 0.005 | 0.00857 | 0.012 | < 0.005 | 0.00756 | 0.0119 | 0.00912 | 0.0103 | 0.0253
5 | N=c1c2c(-c3ccccc3)c(-c3ccccc3)n(Cc3ccccc3)c2ncn1CCCO | 21.3 | 13.3 | 14.3 | 4.17 | 19.7 | 3.77 | – | 7.6 | 15.5 | 16.2 | 2.21 | 0.704 | 1.01 | 1.24 | 3.3 | 0.363 | – | 0.959 | 0.377 | 1.92
6 | NC(=O)c1oc([N+](=O)[O-])c(-c2ccccc2)c1-c1ccccc1 | > 100 | 71.1 | 40.9 | 38.1 | – | > 100 | 42 | 59.6 | > 100 | 89.7 | – | – | – | – | – | – | – | – | – | –
7 | COc1ccc(-c2cc(-c3ccccc3)nc(N3CCN(CCNc4ccnc5cc(Cl)ccc45)CC3)n2)cc1 | 13.2 | 3.45 | 4.04 | 3.06 | 20.7 | – | 3.35 | – | 3.47 | 2.94 | 3.19 | 1.56 | 1.94 | 1.53 | 8.15 | – | 1.14 | – | 1.73 | 1.52
8 | CN(CC(=O)O)c1ccc(/C=C/c2ccnc3ccccc23)cc1 | > 100 | 75.2 | 41.2 | > 100 | 47.1 | 66.6 | > 100 | > 100 | > 100 | > 100 | – | – | – | – | – | – | – | – | – | –
9 | O=c1c2cc(Br)ccc2nc(-c2ccccc2Cl)n1NCC1(O)OCC(O)C(O)C1O (configuration not stated) | > 100 | > 100 | > 100 | – | > 100 | > 100 | – | > 100 | > 100 | > 100 | – | – | – | – | – | – | – | – | – | –
10 | COc1ccc(C2=NN(C(=O)COc3ccc(Cl)cc3)C(O)(c3ccc(Cl)cc3)C2)cc1 (configuration not stated) | > 100 | > 100 | > 100 | > 100 | – | > 100 | > 100 | > 100 | > 100 | > 100 | – | – | – | – | – | – | – | – | – | –
11 | N#Cc1cccc(C(=O)Nc2cccc(NC(=O)c3cccc(C#N)c3)c2)c1 | > 100 | > 100 | – | > 100 | – | > 100 | > 100 | > 100 | > 100 | > 100 | > 100 | 69.3 | – | 57.7 | – | > 100 | 60.4 | > 100 | > 100 | 33.4
12 | CC(C)C[C@H](NC(=O)[C@H]1O[C@@H]1C(=O)O)C(=O)NCCc1ccc(O)cc1 | > 100 | > 100 | > 100 | > 100 | – | > 100 | > 100 | > 100 | > 100 | > 100 | > 100 | > 100 | > 100 | > 100 | – | > 100 | > 100 | > 100 | > 100 | > 100
13 | CCCCCCC#Cc1ccccc1C#CCO | 31.7 | 34.6 | 37.6 | 35.6 | – | – | 26.7 | > 100 | 38 | 96.1 | 16.3 | 16.4 | 18.6 | 19 | – | – | 13.8 | 28.8 | 20.1 | 31.3
14 | O/N=C/c1cc2c(cc1Br)OCO2 | > 100 | > 100 | > 100 | > 100 | > 100 | > 100 | – | > 100 | > 100 | > 100 | – | – | – | – | – | – | – | – | – | –
15 | Fc1cccc2cc3ccc4cccc5ccc(c12)c3c45 | > 100 | > 100 | > 100 | > 100 | > 100 | > 100 | – | > 100 | > 100 | > 100 | – | – | – | – | – | – | – | – | – | –
16 | CC(=O)Nc1ccc(/C=N\N2C(=O)c3ccccc3C2=O)cc1 | > 100 | – | > 100 | > 100 | > 100 | > 100 | > 100 | > 100 | > 100 | > 100 | – | – | – | – | – | – | – | – | – | –
